Test results: PubChem BioAssay AID330 (DTP/NCI, 2004)
Values joined by “and” are separate entries in the source; they are usually repeats but may differ in a detail not shown here. Identical values can stand only once. Inconclusive results and toxic doses are left out.

Test system: P388 leukemia ip, CD2F1 mice, survival T/C
Experiment: NCI In Vivo Anticancer Drug Screen. Data for tumor model P388 Leukemia (intraperitoneal) in CD2F1 (CDF1) mice
Details: endpoint: median survival time, higher = longer survival
Outline: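 Mice carrying the transplanted tumor received test compound or vehicle. Survival was recorded in each group, and the value is the treated-group measurement divided by that of the vehicle-treated control group.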

[1] = dose: 15.0 mg/kg/injection, schedule: Q01DX005 (ip), vehicle: saline with Tween-80
[2] = dose: 30.0 mg/kg/injection, schedule: Q01DX005 (ip), vehicle: saline with Tween-80
[3] = dose: 60.0 mg/kg/injection, schedule: Q01DX005 (ip), vehicle: saline with Tween-80
[4] = dose: 50.0 mg/kg/injection, schedule: Q01DX005 (ip), vehicle: saline
[5] = dose: 50.0 mg/kg/injection, schedule: Q01DX005 (ip), vehicle: Klucel (hydroxypropylcellulose) (HPC)
[6] = dose: 100.0 mg/kg/injection, schedule: Q01DX005 (ip), vehicle: Klucel (hydroxypropylcellulose) (HPC)
[7] = dose: 200.0 mg/kg/injection, schedule: Q01DX005 (ip), vehicle: Klucel (hydroxypropylcellulose) (HPC)
[8] = dose: 50.0 mg/kg/injection, schedule: Q01DX009 (ip), vehicle: saline
[9] = dose: 50.0 mg/kg/injection, schedule: Q01DX005 (ip), vehicle: saline with Tween-80
[10] = dose: 100.0 mg/kg/injection, schedule: Q01DX005 (ip), vehicle: saline with Tween-80
[11] = dose: 200.0 mg/kg/injection, schedule: Q01DX005 (ip), vehicle: saline with Tween-80
[12] = dose: 100.0 mg/kg/injection, schedule: Q01DX005 (ip), vehicle: saline
[13] = dose: 200.0 mg/kg/injection, schedule: Q01DX005 (ip), vehicle: saline

O=[N+]([O-])c1ccc(/C=C/C=C/C=C/C=C/c2ccc(S(=O)(=O)F)cc2Cl)c(Cl)c1
T/C [1]: 99 % of control | T/C [2]: 104 % of control | T/C [3]: 92 % of control and 98 % of control

O=CNNc1cccc(Cl)n1
T/C (dose: 100.0 mg/kg/injection, schedule: Q01DX001 (ip), vehicle: Klucel (hydroxypropylcellulose) (HPC)): 97 % of control | T/C (dose: 200.0 mg/kg/injection, schedule: Q01DX001 (ip), vehicle: Klucel (hydroxypropylcellulose) (HPC)): 97 % of control | T/C (dose: 400.0 mg/kg/injection, schedule: Q01DX001 (ip), vehicle: Klucel (hydroxypropylcellulose) (HPC)): 98 % of control

Cc1ccc(C(=O)Nc2ccc(S(=O)(=O)O)c3cc(S(=O)(=O)O)cc(S(=O)(=O)O)c23)cc1NC(=O)c1cccc(NC(=O)Nc2cccc(C(=O)Nc3cc(C(=O)Nc4ccc(S(=O)(=O)O)c5cc(S(=O)(=O)O)cc(S(=O)(=O)O)c45)ccc3C)c2)c1
T/C (dose: 25.0 mg/kg/injection, schedule: Q01DX005 (ip), vehicle: saline): 106 % of control | T/C [4]: 95 % of control

Clc1ccc(C2Oc3ccccc3-c3nc4ncccc4cc32)cc1 (stereo unspecified)
T/C (dose: 25.0 mg/kg/injection, schedule: Q01DX005 (ip), vehicle: Klucel (hydroxypropylcellulose) (HPC)): 86 % of control | T/C [5]: 86 % of control | T/C [6]: 88 % of control | T/C [7]: 91 % of control

COC(=O)C(N)Cc1ccc(O)c(O)c1 (stereo unspecified)
T/C [8]: 101 % of control | T/C (dose: 50.0 mg/kg/injection, schedule: Q08HX028 (ip), vehicle: water): 99 % of control | T/C (dose: 100.0 mg/kg/injection, schedule: Q01DX009 (ip), vehicle: saline): 108 % of control and 115 % of control | T/C (dose: 100.0 mg/kg/injection, schedule: Q08HX028 (ip), vehicle: water): 102 % of control | T/C (dose: 200.0 mg/kg/injection, schedule: Q01DX009 (ip), vehicle: saline): 111 % of control and 121 % of control | T/C (dose: 200.0 mg/kg/injection, schedule: Q08HX028 (ip), vehicle: water): 120 % of control | T/C (dose: 800.0 mg/kg/injection, schedule: Q01DX009 (ip), vehicle: saline): 156 % of control

COc1cc(C(C)=O)c(C2=NC(C)(C)CO2)cc1C
T/C [9]: 101 % of control | T/C [10]: 98 % of control | T/C [11]: 97 % of control

O=C(O)/C=N/NS(=O)(=O)c1cccc(S(=O)(=O)N/N=C/C(=O)O)c1
T/C (dose: 12.5 mg/kg/injection, schedule: Q01DX009 (ip), vehicle: water): 119 % of control

CC1=CCCN(C)C1c1ccccc1 (stereo unspecified)
T/C [4]: 99 % of control | T/C [12]: 99 % of control

NC1(c2ccccc2)CCCCC1
T/C (dose: 12.5 mg/kg/injection, schedule: Q01DX009 (ip), vehicle: saline): 99 % of control | T/C (dose: 25.0 mg/kg/injection, schedule: Q01DX009 (ip), vehicle: saline): 106 % of control | T/C [8]: 105 % of control

N#CC(Br)(Br)C(=O)c1nc(N)nc(N)n1
T/C (dose: 3.12 mg/kg/injection, schedule: Q01DX005 (ip), vehicle: saline with Tween-80): 96 % of control | T/C (dose: 6.25 mg/kg/injection, schedule: Q01DX005 (ip), vehicle: saline with Tween-80): 100 % of control | T/C (dose: 12.5 mg/kg/injection, schedule: Q01DX005 (ip), vehicle: saline with Tween-80): 104 % of control

Nc1ncccc1O
T/C (dose: 2.5 mg/kg/injection, schedule: Q01DX009 (ip), vehicle: saline): 104 % of control | T/C (dose: 5.0 mg/kg/injection, schedule: Q01DX009 (ip), vehicle: saline): 97 % of control | T/C (dose: 10.0 mg/kg/injection, schedule: Q01DX009 (ip), vehicle: saline): 96 % of control | T/C (dose: 20.0 mg/kg/injection, schedule: Q01DX009 (ip), vehicle: saline): 110 % of control | T/C (dose: 40.0 mg/kg/injection, schedule: Q01DX009 (ip), vehicle: saline): 107 % of control

CCOC(=O)/C=C(\C)NC1CC(OC2CC(O)(C(=O)CO)Cc3c(O)c4c(c(O)c32)C(=O)c2c(OC)cccc2C4=O)OC(C)C1O (stereo unspecified)
T/C (dose: 6.25 mg/kg/injection, schedule: Q04DX003 (ip), vehicle: saline with Tween-80): 119 % of control | T/C (dose: 12.5 mg/kg/injection, schedule: Q04DX003 (ip), vehicle: saline with Tween-80): 113 % of control | T/C (dose: 50.0 mg/kg/injection, schedule: Q04DX003 (ip), vehicle: saline with Tween-80): 172 % of control

CNc1cc(Cl)c(Cl)cc1[N+](=O)[O-]
T/C (dose: 37.5 mg/kg/injection, schedule: Q04DX003 (ip), vehicle: saline sonified): 95 % of control | T/C (dose: 75.0 mg/kg/injection, schedule: Q04DX003 (ip), vehicle: saline sonified): 95 % of control | T/C (dose: 150.0 mg/kg/injection, schedule: Q04DX003 (ip), vehicle: saline sonified): 95 % of control

C=C1C2CC[C@@H]3C45C=NC[C@@](C)(CCC4)[C@@H]5CCC3(C2)[C@@H]1OC(C)=O
T/C (dose: 4.0 mg/kg/injection, schedule: Q01DX009 (ip), vehicle: Klucel (hydroxypropylcellulose) (HPC)): 94 % of control | T/C (dose: 8.0 mg/kg/injection, schedule: Q01DX009 (ip), vehicle: Klucel (hydroxypropylcellulose) (HPC)): 94 % of control | T/C (dose: 16.0 mg/kg/injection, schedule: Q01DX009 (ip), vehicle: Klucel (hydroxypropylcellulose) (HPC)): 95 % of control | T/C (dose: 32.0 mg/kg/injection, schedule: Q01DX009 (ip), vehicle: Klucel (hydroxypropylcellulose) (HPC)): 96 % of control

Cc1cc(NC(=S)SCc2ccc(Cl)cc2)ccc1Cl
T/C (dose: 50.0 mg/kg/injection, schedule: Q01DX009 (ip), vehicle: Klucel (hydroxypropylcellulose) (HPC)): 103 % of control and 118 % of control | T/C (dose: 50.0 mg/kg/injection, schedule: Q01DX009 (ip), vehicle: suspension in saline): 97 % of control | T/C (dose: 100.0 mg/kg/injection, schedule: Q01DX009 (ip), vehicle: suspension in saline): 92 % of control | T/C (dose: 200.0 mg/kg/injection, schedule: Q01DX009 (ip), vehicle: suspension in saline): 96 % of control

N=C(N)Sc1cc(O)c(O)c2ccccc12
T/C (dose: 6.25 mg/kg/injection, schedule: Q01DX005 (ip), vehicle: saline): 104 % of control | T/C (dose: 12.5 mg/kg/injection, schedule: Q01DX005 (ip), vehicle: saline): 109 % of control

CC1=CC(=O)N2CC(=O)N(C)c3ccc(Cl)cc3C2(c2ccccc2)O1 (stereo unspecified)
T/C [5]: 104 % of control | T/C [6]: 92 % of control | T/C [7]: 92 % of control

CSc1nc2c(SC)ncnc2s1
T/C (dose: 100.0 mg/kg/injection, schedule: Q01DX001 (ip), vehicle: distilled water + alcohol): 103 % of control | T/C (dose: 200.0 mg/kg/injection, schedule: Q01DX001 (ip), vehicle: distilled water + alcohol): 94 % of control | T/C (dose: 400.0 mg/kg/injection, schedule: Q01DX001 (ip), vehicle: distilled water + alcohol): 98 % of control

CC(C)(C)OC(OC1(C)COC1=O)C1(C)CO1 (stereo unspecified)
T/C [4]: 87 % of control | T/C (dose: 50.0 mg/kg/injection, schedule: Q01DX005 (ip), vehicle: water): 103 % of control | T/C [12]: 86 % of control | T/C (dose: 100.0 mg/kg/injection, schedule: Q01DX005 (ip), vehicle: water): 105 % of control | T/C [13]: 97 % of control | T/C (dose: 200.0 mg/kg/injection, schedule: Q01DX005 (ip), vehicle: water): 90 % of control

O=c1[nH]c2cc([N+](=O)[O-])ccc2nc1/C=C(\O)c1cccc2ccccc12
T/C (dose: 30.0 mg/kg/injection, schedule: Q01DX005 (ip), vehicle: Klucel + Tween-80): 91 % of control | T/C (dose: 60.0 mg/kg/injection, schedule: Q01DX005 (ip), vehicle: Klucel + Tween-80): 87 % of control and 94 % of control | T/C (dose: 120.0 mg/kg/injection, schedule: Q01DX005 (ip), vehicle: Klucel + Tween-80): 86 % of control | T/C (dose: 240.0 mg/kg/injection, schedule: Q01DX005 (ip), vehicle: Klucel + Tween-80): 88 % of control

COc1ccc(/C(CC2(O)C(=O)Nc3ccccc32)=N\NC(=O)NN)cc1O (stereo unspecified)
T/C [9]: 101 % of control | T/C [10]: 107 % of control | T/C [11]: 100 % of control

Cc1ccc2ccccc2[n+]1CC(=O)c1ccc2c(c1)OCO2
T/C [9]: 110 % of control | T/C [10]: 105 % of control | T/C [11]: 103 % of control

Cc1cc2nc(CC(=O)c3ccc4ccccc4c3)c(=O)[nH]c2cc1C
T/C [1]: 91 % of control | T/C [2]: 91 % of control | T/C [3]: 90 % of control

CCCCCC(CN(C)C)C(=O)/C=C/c1ccc(OC)cc1 (stereo unspecified)
T/C [4]: 101 % of control | T/C [12]: 104 % of control | T/C [13]: 96 % of control

C=C=CCN(C)Cc1ccccc1
T/C (dose: 25.0 mg/kg/injection, schedule: Q04DX002 (ip), vehicle: saline): 106 % of control | T/C (dose: 50.0 mg/kg/injection, schedule: Q04DX002 (ip), vehicle: saline): 93 % of control | T/C (dose: 100.0 mg/kg/injection, schedule: Q04DX002 (ip), vehicle: saline): 100 % of control and 101 % of control

CN(C)c1nnn(Cc2ccccc2)n1
T/C [5]: 101 % of control | T/C [6]: 97 % of control | T/C [7]: 104 % of control
